Legend:
NAC peptide [1] = target: T1, NAC peptide (Homo sapiens, UniProt P37840); experiment: Circular dichroism (CD) analysis of NAC peptide conformation after incubation with test compounds (fibrillogenesis assay); assay type: biochemical; parameters: key to CD Result (NAC conformation observed): Random Coil: signifies that the NAC in the sample was observed to have been maintained in its original random coil conformation indicating that the compound coincubated with NAC is active; signifies that the compound was not able to prevent the shift from random coil to β-sheet; β-sheet/β-turn: signifies that the compound was not able to prevent the shift from random coil to β-sheet; Transition: signifies that the NAC was observed to be in the process of converting from random coil to β-sheet indicating that the compound was able to slow down the conformational change and indicates activity; conditions: for CD Result (NAC conformation observed): 125 μL of 40 μM NAC peptide with 125 μL of 200 μM test compound, pH 7.4, 37° C., conformations over repeated trials; for Activity (CD): active if it prevents the transition to β-turn/β-sheet in 50% or more of the trials; for Activity: active trials / trials: number of CD trials in which transition to β-turn/β-sheet was prevented, over trials run
T1 construct: a 35 amino acid peptide corresponding to residues 61 to 95 of the α-synuclein protein; made in house; host or cells: chemical solid-phase peptide synthesis (Fmoc), not expressed
Experimental: 2 mM Solutions were prepared in TBSA buffer (Tris 0.02 M, NaCl 0.15 M, NaN3 0.005%, pH 7.4) and stored at 4° C. For the assays, compounds were diluted to the desired concentrations in TBSAE buffer (Tris 0.02 M, NaCl 0.15 M, NaN3 0.005%, EDTA 100 μM, pH 7.4) and combined with the NAC peptides.
Fibrillogenesis assays were employed to identify test compounds that inhibit NAC's ability to assemble into fibers. Following removal of HFIP by evaporation under N2 gas, 20 μM NAC peptide is incubated in the assay buffer (0.02M Tris, 0.15 M NaCl, 0.005% NaN3, 100 uM EDTA) at 37° C. in a Perkin-Elmer HTS 7000 plus microplate reader with shaking for 1 minute every twenty minutes. The presence of fibers can be monitored by three different methods.
The following assays were set up in clear polystyrene 96 well microplates by combining 125 μL of 40 μM NAC peptide with 125 μL of 200 μM test compound in 0.02M Tris, 0.15 M NaCl, 0.005% NaN3, […]. The microplates were sealed with a plastic sheet and incubated at 37° C. in a Perkin-Elmer HTS 7000 microplate reader with shaking for 1 minute, every 20 minutes. • Thioflavin T Analysis. To perform this assay 5 μM Thioflavin T is added to the NAC assembly conditions described above. The fluorescence is measured at 430 excitation/485 emission every twenty minutes with a Perkin-Elmer HTS microplate reader for the duration of the assay. […] This assay allows for the identification of compounds that can inhibit this increase in fluorescence upon incubation. • Turbidity Analysis. Alternatively, NAC peptide that has been incubated with test compounds in the appropriate assembly conditions can be analyzed by reading the absorbance at 405 nm to follow the turbidity of the solution which is also an indication of the formation of aggregates. • Circular Dichroism (CD) Analysis. […] This assay allows for the identification of compounds that can prevent NAC from adopting a β-sheet/β-turn conformation upon incubation. • At the appropriate time point, during the incubation, the test solutions were transferred to 0.1-cm path length quartz cuvettes and scanned by CD spectroscopy between 190 and 260 nm, with a resolution of 0.1 nm and a bandwidth of 1 nm using a Jasco J-715 spectropolarimeter at 37° C. […] At the time point at which CD scans are performed a 3 μl aliquot is removed from the sample, spotted onto a Formvar grid and then negatively stained with 4% uranyl acetate. The grids were examined for the presence of fibrils and amorphous aggregates using a JOEL 2000 transmission electron microscope at a 25,000 × magnification. This assay can be used to confirm the absence of fibers in the presence of compounds which inhibit NAC assembly by ThT and CD. The final results were obtained by averaging 10 complete sectors.
For compounds that have been tested multiple times, a compound is classified as active if it prevents the transition to β-turn/β-sheet in 50% or more of the trials.

NAC peptide [2] = target: T1, NAC peptide; experiment: Binding of compounds to NAC peptide by electrospray mass spectrometry; conditions: area of bound NAC-compound complex peaks divided by area of unbound NAC peaks; 5:1 compound:NAC, pH 7.4, 6.6% EtOH
Experimental: The ability of the compounds of the present invention to bind to NAC peptide in aqueous solution was evaluated. The binding ability correlates to the intensities of the peptide-compound complex peaks observed by the Electrospray Mass Spectrum. Millipore distilled deionized water was used to prepare all aqueous solutions. For pH determination a Beckman (Φ36 pH meter fitted with a Corning Semi-Micro Combination pH Electrode was employed.
The optimal cone voltage was determined to be 20V.
Mass spectrometry: Mass spectrometric analysis was performed using a Waters ZQ 4000 mass spectrometer equipped with a Waters 2795 sample manager. MassLynx 4.0 (earlier by MassLynx 3.5) was used for data processing and analysis. Test compounds were mixed with disaggregated peptides in aqueous media (6.6% EtOH) at a 5:1 ratio (20 μM NAC: 100 μM of test compound or 40 μM NAC : 200 μM of test compound). The pH of the mixture was adjusted to 7.4 (±0.2) using 0.1% NaOH (3-5 μL). Periodically, NAC peptide solution at 20 μM or 40 μM was also prepared in the same fashion and run as control. The spectra were obtained by introducing the solutions to the electrospray source by direct infusion using a syringe pump at a flow rate of 25 μl/min, and scanning from 100 to 2100 Da in the positive mode. The scan time was 0.9 sec per scan with an inter-scan delay of 0.1 sec and the run time was 5 min for each sample. All the mass spectra were sum of 300 scans. The desolvation and source temperature was 70° C. and the cone and capillary voltage were maintained at 20 V and 3.2 kV respectively.
The total area under the peaks for the bound NAC-compound complex divided by total area under the peaks for unbound NAC was determined for each compound tested.

Structure (SMILES) | CD Result (NAC conformation observed) (NAC peptide [1]) | Activity (CD) (NAC peptide [1]) | Activity: active trials / trials (NAC peptide [1]) | Binding Strength (NAC peptide [2])
CC(=O)C1(c2ccccc2)CCN(CCCS(=O)(=O)O)CC1 [compound 15] | β-sheet/β- turn Random Coil | No | ¼ | +++ (Strong; when the total binding is 120% and higher)
NCCCCS(=O)(=O)O [compound 7] | β- turn/βsheet Random coil Transition | Yes | 2/4 | ++ (Moderate; when the total binding is between 120% and 70%)
CCCCCCNCCCS(=O)(=O)O [compound 20] | β-turn | No | 0/2 | 
CCCC(CO)NCCC(C)S(=O)(=O)O (centres unmarked) [compound 27] | β-sheet/β- turn | No | 0/2 | 
NCCCOS(=O)(=O)O [compound 4] | β-turn | No | 0/2 | ++ (Moderate; when the total binding is between 120% and 70%)
CC(C)(C)C1CCC(NCCCS(=O)(=O)O)CC1 (centres unmarked) [compound 35] | β-turn | No | 0/2 | 
O=S(=O)(O)CC(O)CNC12C[C@H]3C[C@@H](C1)C[C@@H](C2)C3 (some centres unmarked) [compound 24] | Random Coil | Yes | 2/2 | 
O=S(=O)(O)CCCN1CCc2c([nH]c3ccccc23)C1 [compound 13] | Random coil Transition | Yes | 3/3 | +++ (Strong; when the total binding is 120% and higher)
O=S(=O)(O)CCCC[N+]12CCC(CC1)CC2 [compound 30] | Random Coil β-sheet/β- turn | Yes | 2/4 | 
CC(CCNC12C[C@H]3C[C@@H](C1)C[C@@H](C2)C3)S(=O)(=O)O (some centres unmarked) [compound 23] | Random Coil β-sheet | Yes | ½ | 
NCCOS(=O)(=O)O [compound 3] | β- turn/βsheet | No | 0/2 | − (None; when the total binding is between 30% and 0%)
CC(C)(C)NCCCS(C)(=O)=O [compound 19] | Random Coil β-turn | Yes | ½ | 
CC(C)CCNCC(O)CS(=O)(=O)O (centres unmarked) [compound 33] | Random Coil β-sheet/β- turn | Yes | ½ | 
O=C[C@@H](Cc1ccccc1)N(O)CCCS(=O)(=O)O [compound 37] | β-sheet Transition | Yes | ½ | 
O=S(=O)(O)CCCCS(=O)(=O)O [compound 1] | Random Coil β-sheet | Yes | ½ | − (None; when the total binding is between 30% and 0%)
O=S(=O)(O)CCCNC12C[C@H]3C[C@@H](C1)C[C@@H](C2)C3 [compound 26] | Transition β-turn | Yes | ½ | 
O=S(=O)([O-])CC(O)C[N+]12CCC(CC1)CC2 (centres unmarked) [compound 31] | β-sheet/β- turn α-helix | No | ⅓ | 
CCCCCCCCCCCCCCCCS(C)(C)CCCS(=O)(=O)O [compound 11] | Random Coil | Coil | 4/4 | ++ (Moderate; when the total binding is between 120% and 70%)
O=S(=O)(O)CCCN1CCN(Cc2ccccc2)CC1 [compound 12] | β-turn Transition | No | ⅓ | ++ (Moderate; when the total binding is between 120% and 70%)
CC(C)(C)NCCCCS(=O)(=O)O [compound 28] | β-turn/β- sheet | No | 0/3 | 
O=S(=O)(O)CCCNC(Cc1ccccc1)c1ccccc1 (centres unmarked) [compound 22] | Transition β-turn | No | ⅔ | 
O=C[C@H](Cc1ccccc1)NCCCS(=O)(=O)O [compound 36] | β-sheet | No | 0/1 | 
O=C1NCCCC[C@@H]1NCCCS(=O)(=O)O [compound 18] | β-sheet/β- turn | No | 0/2 | 
O=S(=O)(O)CCC[N+]12CCC(CC1)CC2 [compound 32] | β-sheet/β- turn Random coil | No | ¼ | 
CC1CC(NCCCS(=O)(=O)O)CC(C)(C)C1 (centres unmarked) [compound 34] | Random Coil β-sheet | Yes | ½ | 
O=S(=O)(O)CCCNCCc1c[nH]c2ccccc12 [compound 17] | β-turn Transition | No | ⅓ | 
O=S(=O)(O)CC(O)CNC1C2CC3CC(C2)CC1C3 (centres unmarked) [compound 25] | Random Coil | Yes | 2/2 | 
CC(CC[N+]12CCC(CC1)CC2)S(=O)(=O)O (centres unmarked) [compound 29] | β-turn | No | 0/3 | 
O=S(=O)(O)CC(O)CNC1CCCCC1 (centres unmarked) [compound 21] | β-sheet/β- turn Transition | No | ⅓ | 

— US20050215562A1, “Methods for treating protein aggregation disorders” (priority 2003, published 2005)
